Reference: US20260098034A1, “2H-BENZOTRIAZOLE DERIVATIVE, PREPARATION METHOD THEREFOR, AND PHARMACEUTICAL COMPOSITION CONTAINING SAME” (ORXES THERAPEUTICS CO., LTD., priority 2022, published 2026)
“And” between values parts separate entries of the source, which are not always exact repeats. Equal values may be shown once. Where a name gives a salt, the structure may show the parent alone. Read-outs that look alike come from different tables or passages of the source.

Tests used:
Wistar rats = experiment: PCA-induced Wistar rat premature ejaculation model; format: in vivo
Experimental: Male Wistar rats with a weight of about 300 g were adapted for one week before the experiment was started. On the day of the experiment, the animals were anesthetized with a combination of 20 mg/kg of Zoletil 50 via i.p. and 8 mg/kg of xylazine via i.p., and the body temperature was maintained at 37° C. with a thermal insulation blanket. Exposed common carotid artery was intubated with PE50 to monitor real-time arterial pressure (i.e. systolic pressure, diastolic pressure, and mean arterial pressure). The seminal vesicles and cavernosal muscles of the animals were exposed. The stable baselines of the pressure of the seminal vesicle and the cavernosal myoelectricity were recorded for 10 min. Then the drug was administered through the tail vein for the dapoxetine group, and the tested compound was orally administered for the tested compound group (for the PE model group, the drug was replaced with a solvent). After 1 min, for inducing PE modeling, 5 mg/kg of PCA was injected intraperitoneally, and then the seminal vesicle pressure curve and the change of bulbospongiosus EMG were continuously recorded for 30 min.
• A. Within 30 min, the actual number of ejaculations of the animals and the latency period of the first ejaculation; • B. Within 30 min, the number of the seminal vesicle contractions, the latency period of the first contraction, the basal pressure and the peak pressure.
The experimental data were expressed by means±S.E.M., and statistical analysis was performed by GraphPad Prism 7.0 software. Single factor variance analysis (One-way ANOVA) was used for comparison between multiple groups, and Dunnett't-test was used for statistical analysis in Post hoc test. Student's t-test was used for comparison between two groups. P<0.05 was considered as a significant difference.

[1] = 1 to 2 hours before sexual intercourse, cited from earlier work
[2] = Dapoxetine 2 mg/kg i.v. + PCA 5 mg/kg i.p., within 30 min after PCA induction, individual rats, hydrochloride
[3] = dapoxetine, medium or high dose of A001 to A006

## CN(C)[C@@H](CCOc1cccc2ccccc12)c1ccccc1 [Dapoxetine, Dapoxetine hydrochloride, reference compound]
Wistar rats; [2]
  Actual number of ejaculations: 1 (2×) and 0 (2×) and 2
  Number of the seminal vesicle contractions: 1 (3×) and 0 and 3
  Seminal vesicle basal pressure: 5.16 mmHg and 4.97 mmHg and 5.37 mmHg and 5.88 mmHg and 4.96 mmHg
  Seminal vesicle peak pressure: 6.89 mmHg and 8.1 mmHg and 6.46 mmHg and 6.78 mmHg and 7.03 mmHg
  The first contraction latency period: 1448 s and 1705 s and 1800 s and 1749 s and 866 s
  The first ejaculation latency period: 1558 s and 1800 s (2×) and 1256 s and 967 s
Wistar rats; dapoxetine group (2 mg/kg i.v.), FIG. 4
  latency period of initial seminal vesicle contraction compared with the PE model group: significant increase
Wistar rats; [3]
  ejaculation latency period (conclusion): effectively prolong
  number of ejaculations (conclusion): greatly reduce
[1]; 30 mg
  increase of IELT: 2.5 times
[1]; 60 mg
  increase of IELT: 3.0 times
